Tests used:
MCF7 cells = experiment: LC/MS analysis of global 5hmC levels in MCF7 cells; type: cell-based, human; settings: 24 hours
HIFs = experiment: HIF stabilization and hypoxia response program (Western blot, RT-qPCR) in MCF7 cells; type: cell-based, human; settings: IOX2 50 μM
Description: Cell culture: Cells were cultured as described in the Supplemental Experimental Procedures. […] Where indicated, IOX2 (50 μM) or dimethyl α-ketoglutarate (2 mM) were added to fresh culture medium, using an equal volume of carrier (DMSO) as control for IOX2. Cells were plated at a density tailored to reach 80-95% confluence at the end of the treatment. Fresh medium was added to the cells just before the hypoxia exposure. For glutamine-free culture experiments, dialysed FBS was added to glutamine-free DMEM, and supplemented with glutamine (4 mM) for control. Extraction of DNA, RNA, proteins or metabolites was done 24 hours after the start of treatment, unless indicated otherwise. […]
RT-qPCR: For RNA extractions, cell culture medium was removed, TRIzol (Life Technologies) added and processed according to guidelines. […] Thermal cycling and fluorescence detection were done on a LightCycler 480 Real-Time PCR System (Roche), and differential expression calculated using the ΔΔCt method (Schmittgen and Livak, 2008). […]
TET mRNA concentrations and hypoxia marker gene induction: mRNA concentration analysis and statistics: Ct values were determined for each sample and gene of interest in technical duplicates, and normalized according to the corresponding amplification efficiency. […] Concentrations were expressed as averages of at least 5 independent biological replicates. […]

PHDs = settings: cited from earlier work
[1] = target: recombinant purified Tet1 enzyme (Mus musculus, UniProt Q3URK3); experiment: DNA hydroxymethylation assay using purified TET enzyme at different O2 concentrations; settings: conversion of 5mC to 5hmC on genomic DNA, 3 min reaction
Sequence of recombinant purified Tet1 enzyme (Q3URK3 1367-2039 limits assumed): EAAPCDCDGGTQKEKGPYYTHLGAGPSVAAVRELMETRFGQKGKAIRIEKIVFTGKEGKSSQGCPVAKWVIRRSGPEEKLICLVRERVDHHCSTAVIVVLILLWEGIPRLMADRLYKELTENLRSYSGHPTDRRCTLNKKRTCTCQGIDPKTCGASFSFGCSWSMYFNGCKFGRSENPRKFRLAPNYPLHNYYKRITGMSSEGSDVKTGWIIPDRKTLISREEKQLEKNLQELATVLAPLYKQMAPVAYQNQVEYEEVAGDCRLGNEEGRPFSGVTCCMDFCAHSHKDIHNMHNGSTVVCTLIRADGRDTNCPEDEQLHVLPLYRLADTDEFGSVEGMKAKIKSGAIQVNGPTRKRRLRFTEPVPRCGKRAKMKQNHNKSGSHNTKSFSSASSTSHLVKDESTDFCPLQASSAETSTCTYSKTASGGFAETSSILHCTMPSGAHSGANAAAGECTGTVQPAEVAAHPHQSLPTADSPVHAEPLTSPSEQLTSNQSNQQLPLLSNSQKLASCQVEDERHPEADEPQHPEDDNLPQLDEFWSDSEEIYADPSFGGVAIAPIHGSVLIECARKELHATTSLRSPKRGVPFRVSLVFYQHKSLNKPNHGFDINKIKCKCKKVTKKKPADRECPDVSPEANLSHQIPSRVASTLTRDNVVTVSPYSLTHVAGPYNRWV

[2] = tested on: breast tumors of MMTV-PyMT mice; experiment: sFlk1 overexpression by hydrodynamic plasmid injection in MMTV-PyMT mice; type: in vivo, mouse
Description: Murine cancer models: Animal experiments received local ethical approval (P098/2014). Animals were intercrossed and maintained as described in Supplemental Experimental Procedures. Mammary tumors were harvested at 16 weeks from Tg(MMTV-PyMT) and Tg(MMTV-PyMT); Phd2−/+ mice. For Flk1-overexpression studies, tumors allowed to develop for 11 weeks. Subsequently, 2.5 μg of plasmid (sFlk1-overexpressing or empty p156RRL2 vector) per gram of mouse body weight was introduced in the blood stream using hydrodynamic injections (Liu et al., 1999). sFlk1 overexpression was monitored at 4 days after injection and at sacrifice ([…]), by eye bleeds followed by an enzyme-linked immunosorbent assay for sFlk1 (R&D Systems, Abingdon, UK) in blood plasma. At 12 weeks of age, mice were sacrificed and mammary tumors harvested blinded for treatment. For the Phd2^+/− experiments, male Tg(MMTV-PyMT) FVB mice were intercrossed with female Phd2^−/+ mice, yielding litters of which half have either a Tg(MMTV-PyMT) genotype or a Tg(MMTV-PyMT); Phd2^−/+ genotype. For the Phd2^wt/fl experiments, male Tg(MMTV-PyMT) FVB mice were intercrossed with female Tie2-cre; Phd2^wt/fl mice as described (Kuchnio et al 2015), yielding litters of which half have either a Tie2-cre; Tg(MMTV-PyMT); Phd2^wt/wt genotype or a Tie2-cre; Tg(MMTV-PyMT); Phd2^−/+ genotype. At 16 weeks of age, female mice were sacrificed and mammary tumors harvested.
Targeted deep BS-seq: As no murine capture kit was available for targeted BSseq, a specific ampliconBS was developed for a set of 15 tumor suppressor gene promoters and 5 oncogene promoters. More specifically, DNA was bisulfite-converted using the Imprint DNA modification kit and amplified using the MegaMix Gold 2× mastermix and validated primer pairs. Per sample, PCR products were mixed to equimolar concentrations, converted into sequencing libraries using the NEBNext DNA library prep master mix set and sequenced to a depth of ˜500×. Mapping and quantification were done as described for SeqCapEpi. The average and variance of methylation level M values in normal mammary glands were used as baseline, and amplicons displaying over 3 standard deviations more methylation (FDR-adjusted P<0.05) than this baseline were called as hypermethylated. At least 9 different tumors, each from different animals, were profiled per genotype or treatment, and differences in HM frequencies between sets of tumors were assessed using Mann-Whitney's U-test.
Immunofluorescence staining: To mark hypoxic areas, mice were injected with pimonidazole (60 mg/kg, Hypoxyprobe, Massachusetts, USA) i.p. 1 hour before sacrifice. Tumors were harvested, fixed in formaldehyde and embedded in paraffin using standard procedures. Slides were deparafinated and rehydrated 2 xylene baths (5 minutes), followed by 5 times 3 minutes in EtOH baths at decreasing concentrations (100%, 96%, 70%, 50% and water) and a 3 minute Tris-buffered saline (TBS; 50 mM Tris, 150 mM NaCl, pH 7.6) bath. The following antibodies were used for immunofluorescence staining: primary antibodies were FITC-conjugated mouse anti-pimonidazole (HP2-100, Hydroxyprobe), rabbit anti-5hmC (39791, Active Motif), rat anti-polyoma middle T (AB15085, Abcam), rat anti-CD31 (557355, BD Biosciences), rat anti-CD45 (553076, BD Biosciences), rabbit anti-Ki67 (AB15580, Abcam) and mouse anti-pan cytokeratin (C2562, Sigma). […]

O=C(O)CNC(=O)c1c(O)c2ccccc2n(Cc2ccccc2)c1=O [IOX2]
changes in global 5hmC levels (MCF7 cells; IOX2 50 μM, carrier DMSO as control): no changes
HIF stabilization and activation of the hypoxia response program (HIFs): sufficient to stabilize HIFs and activate the hypoxia response program
specificity for PHDs over other αKG-dependent dioxygenases (PHDs): high specificity

O=O [oxygen]
Km of Tet1 for oxygen [1]: ~0.3 % O2

COC(=O)CCC(=O)C(=O)OC [αKG, dimethyl α-ketoglutarate]
changes in global 5hmC levels (MCF7 cells; dimethyl α-ketoglutarate 2 mM added to medium): Neither of these conditions however altered 5hmC levels

B1: sFlk1: soluble Flk1, VEGF inhibitor, overexpressed from a hydrodynamically injected plasmid (protein, UniProt P35918 20-762, looked up)
extracellular domain: ASVGLPGDFLHPPKLSTQKDILTILANTTLQITCRGQRDLDWLWPNAQRDSEERVLVTECGGGDSIFCKTLTIPRVVGNDTGAYKCSYRDVDIASTVYVYVRDYRSPFIASVSDQHGIVYITENKNKTVVIPCRGSISNLNVSLCARYPEKRFVPDGNRISWDSEIGFTLPSYMISYAGMVFCEAKINDETYQSIMYIVVVVGYRIYDVILSPPHEIELSAGEKLVLNCTARTELNVGLDFTWHSPPSKSHHKKIVNRDVKPFPGTVAKMFLSTLTIESVTKSDQGEYTCVASSGRMIKRNRTFVRVHTKPFIAFGSGMKSLVEATVGSQVRIPVKYLSYPAPDIKWYRNGRPIESNYTMIVGDELTIMEVTERDAGNYTVILTNPISMEKQSHMVSLVVNVPPQIGEKALISPMDSYQYGTMQTLTCTVYANPPLHHIQWYWQLEEACSYRPGQTSPYACKEWRHVEDFQGGNKIEVTKNQYALIEGKNKTVSTLVIQAANVSALYKCEAINKAGRGERVISFHVIRGPEITVQPAAQPTEQESVSLLCTADRNTFENLTWYKLGSQATSVHMGESLTPVCKNLDALWKLNGTMFSNSTNDILIVAFQNASLQDQGDYVCSAQDKKTKKRHCLVKQLIILERMAPMITGNLENQTTTIGETIEVTCPASGNPTPHITWFKDNETLVEDSGIVLRDGNRNLTIRRVRKEDGGLYTCQACNVLGCARAETLFIIEGAQEKTNLE
modifications: extracellular domain
tumor hypoxia (hypoxic area) ([2]; after sFlk1 treatment, 20% in control): 47%
TSGs hypermethylated relative to control in at least one out of 24 hypoxic tumors ([2]; deep BS-sequencing, panel of 15 TSG promoters): 10 out of 15
hypermethylation of oncogene promoters ([2]; deep BS-sequencing, sFlk-treated tumors): failed to display the same increase
increase in plasma sFlk1 concentrations ([2]; during 3 weeks after hydrodynamic injection of sFlk1-expressing plasmid, versus empty plasmid): > 11 fold
reduction in vessel density ([2]; tumor vasculature, sFlk1-treated mice): 42±10%
